In US8252832B2, “Kinesin inhibitors as cancer therapeutics” (Novartis AG, priority 2007, dated 2012):

Assays:
Experiment in all cases: LDH release assay
Type in all cases: cell-based
T47-D = details: Homo sapiens, T47D
Text: (§1) Identification of tumor types that are the most sensitive to the KSP inhibitors of the present invention can be accomplished using an unbiased approach that uses several cell-based assays. The assays chosen were as follows: • CellTiter-Glo®. This is an assay designed to measure ATP concentration in a cell culture, and can be correlated to cell number. Briefly CellTiter-Glo® (Promega Corporation) is a homogeneous method using the single CellTiter-Glo® reagent to detect ATP wherein ATP in the assay drives the activity of a thermostable luciferase to create a luminescent signal which can then be measured and correlated with the number of viable cells. Briefly, for adherent cells, 1,000 to 5,000 cells/well were plated in 96-well plates (100 μl/well) and let to adhere for 24 hours before being treated with drug. For non-adherent cells, 1,000 to 10,000 cells/well were plated in 96-well plates (100 μl/well) and immediately treated with drug. Drug dilutions were prepared in DMSO at 1000 times the final concentration. These dilutions were then diluted 1/100 in growth media before being added to the cells (11 μl/well) to achieve the desired final concentration. After 48 h in a 37° C. tissue culture incubator, the plates were processed for the CellTiter-Glo®assay according to the manufacturer's instructions. Protocol for a 72 hour cell proliferation assay: The 72 hour assay was performed the same way as the 48 hour assay except for the following modifications: For adherent cells, 500 to 5,000 cells/well were plated in 96-well plates (90 μl/well cell growth media) and left to adhere for 24 hours before being treated with drug. For non-adherent cells, 1,000 to 10,000 cells/well were plated in 96-well plates (90 μl/well cell growth media) and immediately treated with drug. Data values presented represent the concentration of test compound required for a 50% reduction in growth. • LDH release. The Cytotoxicity Detection KitPLUS (LDH) assay (Roche Diagnostics, Manheim, Germany) measures the amount of LDH released in the media by dying cells; LDH catalyzes the conversion of lactate into pyruvate. The enzymatic reaction is coupled to a chemical reaction that uses a tetrazolium salt to form a formazan that is red and can be detected by its absorbance at 490 nm. This assay measures the amount of cell death after drug treatment. Cells were plated at 10,000 cells/well in 96-well plates (100 μl/well). Adherent cells were let to adhere for 24 hours before being treated with drug, whereas non-adherent cells were immediately treated with drug. Drug dilutions were prepared in DMSO at 1000 times the final concentration. These dilutions were then diluted 1/100 in growth media before being added to the cells (11 μl/well) to achieve the desired final concentration. […] The media only values were subtracted from all the data points before analysis. Data values presented correspond to the compound concentration wherein LDH output is at half maximal level. • Caspase-Glo® 3/7. The Caspase-Glo® 3/7 Assay (Promega Corporation) is a homogeneous luminescent assay that measures caspase-3/7 activities. The assay provides a proluminescent caspase-3/7 DEVD-aminoluciferin substrate and a thermostable luciferase in a reagent optimized for caspase-3/7 activity, luciferase activity and cell lysis. Adding the single Caspase-Glo® 3/7 Reagent results in cell lysis, followed by caspase cleavage of the substrate. This liberates free aminoluciferin, which is consumed by the luciferase, generating a luminescent signal. The signal is proportional to caspase-3/7 activity. Data values presented correspond to the compound concentration wherein caspase 3/7 activity is at half maximal level.

HT29 = details: Homo sapiens, HT-29
Text: as §1

HCT-116 = details: Homo sapiens
Text: as §1

## CC(C)(C)[C@H](c1nc(-c2cc(F)ccc2F)cn1Cc1ccccc1)N(CC[C@H](N)CF)C(=O)CO [Compound IIa]
T47-D; 48 h
  EC50: 0.32 nM
T47-D; 72 h
  EC50: 0.33 nM
HT29; HT29, 48 h
  EC50: 0.35 nM
HT29; HT29, 72 h
  EC50: 0.27 nM
HCT-116; HCT-116, 24 h
  EC50: 0.06 nM
HCT-116; HCT-116, 48 h
  EC50: 0.1 nM
HCT-116; HCT-116, 72 h
  EC50: 0.1 nM
